# In patent US20230147744A1, “METHODS TO ENRICH ENTEROENDOCRINE CELLS AND THEIR SUBTYPES IN THE CONTIGUOUS, INTESTINAL MONOLAYER SYSTEMS” (The University of North Carolina at Chapel Hill, priority 2020, published 2023):
# Where “and” joins values, the source holds several entries; their conditions need not be identical. Equal entries are not always repeated.
# Legend:
# GLP-1+ L cells = assay: Density of GLP-1+ L-cells on differentiated colonic monolayers; format: cell-based, human; settings: for formation of L-cells: addition during differentiation, 4 days
# Text: Enteroendocrine (EEC) cells within the intestinal epithelium consist of at least 15 different subtypes. Enterochromaffin (EC) cells are the most abundant subtype, comprising about 40% of EEC cells in the gastrointestinal tract. Besides EC cells, at least one other important EE subtype is L-cells, which are major regulators of the gut-brain interactions and are pivotal in regulating appetite and glucose homeostasis^4. L-cells co-secrete peptide hormones GLP-1 and PYY in response to the ingestion of food^5-8. GLP-1 stimulates the secretion of insulin from pancreatic β-cells^9,10, decreases gastric emptying and increases satiation^11. PYY slows GI motility and reduces food intake^12. Due to their important function as regulators of postprandial response to nutrients, L-cells are of specific interest in the field of obesity and diabetes^3-17. L-cells were also identified in the VIP-ALI cultured monolayers at a density of 12±2 mm^2 and constituted about 14% of the EE population (FIG. 7). However, the density of L-cells is still too low to perform a reliable functional assay of GLP-1/PYY secretion. Thus, further experiments were conducted to develop optimal protocols to enrich L-cells (see Example 7).
# Experiments were conducted to systemically optimize four conditions to enrich L-cells: (1) ±ALI, (2) ±VIP, (3) R-spondin/Noggin ratio at 1:4, 1:1 and 4:1 in differentiation medium, (4) ±BIMU8 (a potent 5-HT4 agonist). The colonic stem cells were plated on a porous membrane coated with Matrigel and cultured for 3 days in growth factor-enriched medium until the cell monolayer reach confluence. Then the cells were differentiated for 4 days and the density of GLP-1^+ L cells was used as the readout (FIG. 8A). […] The R-spondin/Noggin ratio in differentiation medium also affected the density of L-cells, and the best result was obtained by using a ratio of 4/1. By using the conditions disclosed herein (ALI, VIP, R-spondin/Noggin=4/1, BIMU8), 137±12 cells/mm^2 GLP-1^+ L-cells were obtained, which is about 46 times higher than 3±2 cells/mm^2 in the previously used conditions (submerged, —VIP, R-spondin/Noggin=1/1, -BIMU8), and 11 times higher than 12±2 mm^2 in VIP-ALI culture (+ALI, +VIP, R-spondin/Noggin=1/1, -BIMU8).
# [1] = system: EEC (ChgA+) and EC (5HT+) cells; assay: Number of EEC (ChgA+) and EC (5HT+) cells on monolayers by immunofluorescence staining; format: cell-based
# Experimental: (§1) The fraction of EC among EEC remained in the range of 45-51% in these differentiation conditions, which is consistent with their fraction in the body that EC make up over 70% of the EEC population in the proximal colon and falls to around 40% in the rectum.^2 To test if the enriched EC cells increases 5HT secretion, the monolayers were stimulated with vehicle (DMSO) or forskolin (10 μM). […] The induction is 6.1× over the vehicle control (0.62±0.07 ng/mL). Therefore, the enriched EC cells improves the 5HT secretion assay by increasing the signal/background ratio.
# It is likely that stem cells make lineage-fate decisions at the proliferation stage toward enterocytes and goblets cells, which are the major cell types in the intestinal epithelium. We can add signaling molecules, such as CHIR99021, to prevent the early lineage-fate decision and force the stem cells to stay at their ground state. CHIR99021 activates Wnt signaling by inhibition of GSK3. When the stem cells were cultured in EM under 3 μM CHIR99021 prior to conventional submerged culture in DM, the presence of EC cells was increased by almost 200% (FIGS. 11A and 11B). […] Besides CHIR99021, other Wnt activators (WAY316606, ABC99, IQ1, arylpyrimidine), and recombinant proteins of Wnt-3A and R-spondin (Wnt signaling enhancer) may be able to increase the formation of EC cells. We have not studied the synergistic effect of Wnt activator (in EM) and VIP-assisted ALI (in DM), but we expect the combination of both strategies will further increase the formation of EEC and EC cells.
# [2] = system: EC cells in monolayers derived from human transverse colon stem cells; assay: 5HT secretion assay (ELISA of basal medium) on stem-cell-derived colonic monolayers after apical stimulation; format: cell-based; settings: for 5HT induction: pungent food ingredient screen, apical stimulation 4 h, EC-enriched monolayers, donor 2
# [3] = system: EC cells in monolayers derived from human transverse colon stem cells; assay: as above; format: cell-based
# Text: Culture conditions for intestinal epithelial monolayer platform have been optimized in a previous publication, and the medium composition for yielding the maximal expression levels of EEC cell lineage marker gene ChgA was investigated.^11 Nicotinamide and p38 MAP kinase inhibitor (SB202190), two compounds commonly used in intestinal epithelial cell culture, are removed from medium due to their suppression of differentiation towards secretory cells. Inclusion of A 8301, a TGF-β receptor signaling inhibitor, is required for proper differentiation and cell morphology of monolayer cultures. Herein, the same medium composition was adopted and the in vitro monolayers were generated from stem cells derived from human transverse colon using the traditional submerged culture. The EEC (ChgA+) and EC (5HT+) cells presented at a density of 22±5 and 10±3 mm^−2, respectively (FIG. 2A, 2B). Accordingly, the total number of EC cells in a 96-well insert (surface area=11 mm^2) is 110±33. To test if the number of EC cells is enough for functional assays, the monolayers were stimulated with vehicle (dimethyl sulfoxide [DMSO]) or forskolin (10 μM) at the apical side for 4 h, and the released 5HT from the basal side was collected and quantified (FIG. 2C). Forskolin is a potent stimulus of 5HT release though activation of the cAMP-dependent pathway.^18 In three independent experiments, stimulated 5HT secretion by forskolin was 0.97±0.34, 0.88±0.28, and 0.60±0.23 ng/mL, respectively, corresponding to 3.6×, 2.1× and 2.4× induction over the vehicle controls (0.27±0.10, 0.42±0.18 ng/mL, and 0.25±0.07 respectively). Significant inter-experiment variability was observed due to high standard deviation of the 5HT measurements: the results in the first experiment were considered to be statistically non-significant (p>0.05, t-test), statistically significant (p<0.05) in the second one, but statistically non-significant (p>0.05) again in the third experiment. The high standard deviation came from a number of sources: error in 5HT measurement through enzyme-linked immunosorbent assay (ELISA), well-to-well variation, 5HT residue (mainly from the fetal bovine serum in the medium) left in the well, and 5HT that spontaneously leached out from the apoptotic ECs during assay. To improve the reliability of 5HT secretion assay and its signal/background ratio, the number of EEC and EC cells in monolayers need to be enriched.
# as §1
# As the generation and storage of 5HT inside granules of EC cells depends on the cell maturation, the level of 5HT secretion is affected by the differentiation length of the monolayers. To find out the optimal duration for differentiation, the monolayers were subjected to VIP-assisted ALI culture for 3-7 days. As expected, the forskolin stimulated 5HT secretion increased with differentiation length (due to cell maturation), so did the non-stimulated basal secretion (FIG. 4E). The barrier integrity was remained (Papp<4×10^−7 cm/s) for all samples, except for those under 7 days in differentiation in which the cells may start to undergo apoptosis (FIG. 4F). 5 days in differentiation was considered to be optimal since it generated monolayers with high 5HT induction (5.7×) and monolayer barrier integrity. This duration is coincident with life span of differentiated epithelium in human colon. Unless otherwise specified, 5 days were used for differentiation in this invention. […]
# [4] = system: colonic monolayers derived from human transverse colon; assay: Monolayer barrier integrity (Papp, TEER); format: cell-based; settings: VIP-assisted ALI culture, n=6
# Text: Besides the elevated 5HT secretion, an additional advantage of VIP-assisted ALI culture is the improved barrier integrity (FIG. 4D). […] The cell respiration combined with the low diffusion rate of oxygen in the growth medium can lead to a reduced oxygen availability to the cells.^22 ALI culture can increase the oxygen availability, but the cells were stressed due to the complete dry up at the apical surface. […] Conversely, VIP-assisted ALI culture maintained a thin layer of fluid (about 0.4 mm thick) at the apical side, thus increasing the oxygen availability and at the same time as eliminating the stress from dry up. The high integrity of monolayers is needed to effectively segregates the apical and basal reservoirs to prevent the leakage of the stimulants and 5HT.
# [5] = ALI, VIP, R-spondin/Noggin=4/1, BIMU8
molecule,measurement,setting,value
CC(C)n1c(=O)n(C(=O)NC2CC3CCC(C2)N3C)c2ccccc21 (stereo not drawn) [BIMU8],"L-cell density, times higher than VIP-ALI culture (+ALI, +VIP, R-spondin/Noggin=1/1, -BIMU8)",GLP-1+ L cells; [5],11 times
same,"L-cell density, times higher than previously used conditions (submerged, -VIP, R-spondin/Noggin=1/1, -BIMU8)",GLP-1+ L cells; [5],about 46 times
same,GLP-1+ L-cells density,"GLP-1+ L cells; ALI, VIP, R-spondin/Noggin=4/1, BIMU8, 4 days differentiation",137±12 cells/mm^2
same,formation of L-cells,GLP-1+ L cells,increased the formation of L-cells
Cc1c[nH]c(-c2cnc(NCCNc3ccc(C#N)cn3)nc2-c2ccc(Cl)cc2Cl)n1 [CHIR99021],increase of presence of EC cells,[1]; 3 μM CHIR99021 in EM prior to conventional submerged culture in DM,~200%
O=CC=Cc1ccccc1 [Cinnamaldehyde],5HT induction,[2],1.8 ×
COc1cc(/C=C/C(=O)CC(=O)/C=C/c2ccc(O)c(OC)c2)ccc1O [curcumin],EC50,"[2]; Homo sapiens, dose-dependent stimulation of 5HT secretion, read-out: median effective dose (E50) for 5HT secretion",51 µM
same,5HT induction,[2],7.3 ×
C=C[C@@]1(C)CC(=O)[C@]2(O)[C@@]3(C)[C@@H](O)CCC(C)(C)[C@@H]3[C@H](O)[C@H](OC(C)=O)[C@@]2(C)O1 [forskolin],5HT induction (forskolin/DMSO),"[3]; donor 1, 2, and 5",> 5.0
same,5HT induction (forskolin/DMSO),[3]; donor 3 and 4,< 3.6
same,stimulated 5HT secretion,"[3]; forskolin 10 μM apical 4 h, monolayers from traditional submerged culture, independent experiments",0.97 ± 0.34 ng/mL and 0.88 ± 0.28 ng/mL and 0.60 ± 0.23 ng/mL and 0.97 ± 0.44 ng/mL
same,induction of 5HT secretion over the vehicle control,"[3]; forskolin 10 μM apical 4 h, submerged culture, three independent experiments",3.6 × and 2.1 × and 2.4 ×
same,induction of 5HT secretion over the vehicle control,"[3]; forskolin 10 μM, VIP-assisted ALI culture",6.1 ×
same,5HT secretion higher than that from submerged culture,"[3]; forskolin 10 μM, VIP-assisted ALI vs submerged culture",390%
same,5HT secretion under forskolin stimulation,"[3]; forskolin 10 μM, monolayer from VIP-assisted ALI culture",3.79 ± 0.57 ng/mL
same,5HT induction,"[3]; forskolin, VIP-assisted ALI culture, 5 days in differentiation (duration study 3-7 days)",5.7 ×
same,induction of 5HT secretion (forskolin/DMSO),"[3]; stem cell passage numbers 7, 9, 11, 13 and 15",4.1-5.7 ×
same,5HT induction,[2],4.9 ×
vasoactive intestinal peptide [VIP],number of EC compared with submerged culture,[1]; VIP added to submerged culture,180%
same,number of EEC compared with submerged culture,[1]; VIP added to submerged culture,177%
same,density of EC,[1]; combination of ALI and VIP,43±9 mm^−2
same,density of EEC,[1]; combination of ALI and VIP,83±11 mm^−2
same,number of EC compared with traditional submerged culture without VIP,[1]; combination of ALI and VIP,430%
same,number of EEC compared with traditional submerged culture without VIP,[1]; combination of ALI and VIP,377%
same,transepithelial electrical resistance (TEER),[4],842±166 ohms cm^2
same,L-cells as share of the EE population,GLP-1+ L cells; VIP-ALI cultured monolayers,about 14%
same,formation of L-cells,GLP-1+ L cells,increased the formation of L-cells
